Reference: the supplement of paper PMC4862054
Each block holds one compound with its values, some of them ahead of it.

Assays:
Conditions in all cases: 72 h
[1] = test system: BT-549
Summary of the method: (§1)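 The plates used were 384-well plates holding compound at 5 concentrations in 10-fold steps across a compound-specific 10,000-fold range, into which breast cancer cell lines were seeded in 20 µl suspension. Following 72 h incubation, CellTox Green fluorescence was read at 485/520 nm, and CellTiter-Glo luminescence was read after 10 min at room temperature. Normalisation on each plate used 0.1 % DMSO and a positive kill control. Dose-response curves gave the EC50, which was censored at the top concentration.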

[2] = test system: CAL-120
Summary of the method: as §1

[3] = test system: CAL-85-1
Summary of the method: as §1

[4] = test system: DU-4475
Summary of the method: as §1

[5] = test system: HCC1937
Summary of the method: as §1

[6] = test system: HDQ-P1
Summary of the method: as §1

[7] = test system: Hs578T
Summary of the method: as §1

[8] = test system: MDA-MB-436
Summary of the method: as §1

[9] = test system: MFM-223
Summary of the method: as §1

[10] = test system: CAL-51
Summary of the method: (§2)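 Rows with a drug sensitivity score of zero were dropped, and EC50 was taken from the fitted percent-inhibition dose-response curve, censored at the highest concentration. Data were normalised on each plate to vehicle and a positive kill control and checked by Z'-factor. The assay seeded breast cancer cell lines in 20 µl onto 384-well plates pre-loaded with compound in 5 µl medium for 72 h, then added 2.5 µl CellTiter-Blue for 2 h at 37 °C and read fluorescence at 560/590 nm.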

[11] = test system: DU-4475; remark: listed apart in the source
Summary of the method: as §2

[12] = test system: HDQ-P1; remark: listed apart in the source
Summary of the method: as §2

[13] = test system: BT-549; remark: listed apart in the source
Summary of the method: as §2

[14] = test system: HCC1143
Summary of the method: as §2

[15] = test system: Hs578T; remark: listed apart in the source
Summary of the method: as §2

[16] = test system: MDA-MB-436; remark: listed apart in the source
Summary of the method: as §2

[17] = test system: MFM-223; remark: listed apart in the source
Summary of the method: as §2

[18] = test system: BT-549; remark: listed apart in the source
Procedure: (§3)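 Drug sensitivity and resistance testing (DSRT) of breast cancer cell lines in 384-well plates, 5 concentrations in 10-fold dilutions over a compound-specific 10,000-fold range. After 72 h, cytotoxicity was read by CellTox Green fluorescence and viability by CellTiter-Glo luminescence (multiplexed), normalised to DMSO and benzethonium chloride controls. EC50 is the inflection point of the fitted dose-response curve (bottom asymptote free, so it can be relative for partial curves) and is censored at the highest tested concentration. Rows with DSS 0 (no meaningful response) were excluded.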

[19] = test system: CAL-85-1; remark: listed apart in the source
Procedure: as §3

[20] = test system: MFM-223; remark: listed apart in the source
Procedure: as §3

[21] = test system: CAL-148
Summary of the method: as §1

[22] = test system: HCC1143; remark: listed apart in the source
Summary of the method: as §1

[23] = test system: HCC1599
Summary of the method: as §1

[24] = test system: MDA-MB-231
Summary of the method: as §1

[25] = test system: MDA-MB-453
Summary of the method: as §1

[26] = test system: SK-BR-3
Summary of the method: as §1

[27] = test system: BT-474
Procedure: as §3

[28] = test system: CAL-51; remark: listed apart in the source
Procedure: as §3

[29] = test system: HCC1143; remark: listed apart in the source
Procedure: as §3

[30] = test system: HCC1937; remark: listed apart in the source
Procedure: as §3

[31] = test system: MDA-MB-231; remark: listed apart in the source
Procedure: as §3

[32] = test system: MDA-MB-453; remark: listed apart in the source
Procedure: as §3

[33] = test system: MCF-10A
Summary of the method: as §1

[34] = test system: CAL-85-1; remark: listed apart in the source
Summary of the method: as §2

[35] = test system: BT-474; remark: listed apart in the source
Summary of the method: as §2

[36] = test system: HCC1599; remark: listed apart in the source
Summary of the method: as §2

[37] = test system: MDA-MB-468
Summary of the method: as §2

[38] = test system: SK-BR-3; remark: listed apart in the source
Summary of the method: as §2

[39] = test system: CAL-120; remark: listed apart in the source
Procedure: as §3

[40] = test system: CAL-148; remark: listed apart in the source
Procedure: as §3

[41] = test system: DU-4475; remark: listed apart in the source
Procedure: as §3

[42] = test system: HDQ-P1; remark: listed apart in the source
Procedure: as §3

[43] = test system: Hs578T; remark: listed apart in the source
Procedure: as §3

[44] = test system: MCF-10A; remark: listed apart in the source
Procedure: as §3

EC50, CellTiter-Glo [1]: 377 nM
EC50, CellTiter-Glo [5]: 163 nM
EC50, CellTiter-Glo [8]: 137 nM
EC50, CellTiter-Blue viability [13]: 4.14 nM
EC50, CellTiter-Blue viability [14]: 1.43 nM
EC50, CellTiter-Blue viability [16]: 30 nM
Compound: Cn1c(Nc2ccc(C(F)(F)F)cc2)nc2cc(Oc3ccnc(-c4ncc(C(F)(F)F)[nH]4)c3)ccc21 [RAF265]
EC50, CellTiter-Glo [2]: 97.2 nM
EC50, CellTiter-Glo [3]: 827 nM
EC50, CellTiter-Glo [4]: 193 nM
EC50, CellTiter-Glo [6]: 108 nM
EC50, CellTiter-Glo [7]: 72.4 nM
EC50, CellTiter-Glo [9]: 291 nM
EC50, CellTiter-Blue viability [10]: 915 nM
EC50, CellTiter-Blue viability [11]: 328 nM
EC50, CellTiter-Blue viability [12]: 82.3 nM
EC50, CellTiter-Blue viability [15]: 196 nM
EC50, CellTiter-Blue viability [17]: 673 nM
EC50, CellTox Green [18]: 581 nM
EC50, CellTox Green [19]: 139 nM
EC50, CellTox Green [20]: 600 nM

EC50, CellTiter-Glo [1]: 7350 nM
EC50, CellTiter-Glo [22]: 6400 nM
EC50, CellTiter-Glo [23]: 3820 nM
EC50, CellTiter-Glo [5]: 4670 nM
EC50, CellTiter-Glo [24]: 2430 nM
EC50, CellTiter-Glo [25]: 1750 nM
EC50, CellTiter-Glo [26]: 8750 nM
Compound: O=C(CCCCCCC(=O)Nc1ccc([C@H]2O[C@@H](CSc3nc(-c4ccccc4)c(-c4ccccc4)o3)C[C@@H](c3ccc(CO)cc3)O2)cc1)NO [Tubacin]
EC50, CellTiter-Glo [2]: 1610 nM
EC50, CellTiter-Glo [21]: 2900 nM
EC50, CellTiter-Glo [3]: 2080 nM
EC50, CellTiter-Glo [4]: 1480 nM
EC50, CellTiter-Glo [6]: 3460 nM
EC50, CellTiter-Glo [9]: 3590 nM
EC50, CellTox Green [27]: 1880 nM
EC50, CellTox Green [28]: 2070 nM
EC50, CellTox Green [19]: 3160 nM
EC50, CellTox Green [29]: 6850 nM
EC50, CellTox Green [30]: 124 nM
EC50, CellTox Green [31]: 2010 nM
EC50, CellTox Green [32]: 8370 nM

EC50, CellTiter-Glo [1]: 118 nM
EC50, CellTiter-Glo [22]: 145 nM
EC50, CellTiter-Glo [23]: 28 nM
EC50, CellTiter-Glo [5]: 193 nM
EC50, CellTiter-Glo [24]: 34.4 nM
EC50, CellTiter-Glo [8]: 88.1 nM
EC50, CellTiter-Glo [25]: 277 nM
EC50, CellTiter-Glo [26]: 57.6 nM
EC50, CellTiter-Blue viability [35]: 846 nM
EC50, CellTiter-Blue viability [13]: 111 nM
EC50, CellTiter-Blue viability [14]: 48.5 nM
EC50, CellTiter-Blue viability [36]: 98.1 nM
EC50, CellTiter-Blue viability [16]: 695 nM
EC50, CellTiter-Blue viability [37]: 105 nM
EC50, CellTiter-Blue viability [38]: 80.2 nM
Compound: CN[C@@H]1C[C@H]2O[C@@](C)([C@@H]1OC)n1c3ccccc3c3c4c(c5c6ccccc6n2c5c31)C(=O)N[C@H]4O [UCN-01]
EC50, CellTiter-Glo [2]: 43.6 nM
EC50, CellTiter-Glo [21]: 1490 nM
EC50, CellTiter-Glo [3]: 81.3 nM
EC50, CellTiter-Glo [4]: 184 nM
EC50, CellTiter-Glo [6]: 217 nM
EC50, CellTiter-Glo [7]: 36.8 nM
EC50, CellTiter-Glo [33]: 45.7 nM
EC50, CellTiter-Glo [9]: 137 nM
EC50, CellTiter-Blue viability [10]: 140 nM
EC50, CellTiter-Blue viability [34]: 175 nM
EC50, CellTiter-Blue viability [11]: 212 nM
EC50, CellTiter-Blue viability [12]: 59.7 nM
EC50, CellTiter-Blue viability [15]: 30.6 nM
EC50, CellTiter-Blue viability [17]: 355 nM
EC50, CellTox Green [27]: 2470 nM
EC50, CellTox Green [18]: 220 nM
EC50, CellTox Green [39]: 1580 nM
EC50, CellTox Green [40]: 6850 nM
EC50, CellTox Green [28]: 63.9 nM
EC50, CellTox Green [19]: 168 nM
EC50, CellTox Green [41]: 128 nM
EC50, CellTox Green [29]: 114 nM
EC50, CellTox Green [42]: 34.3 nM
EC50, CellTox Green [43]: 266 nM
EC50, CellTox Green [44]: 130 nM
EC50, CellTox Green [31]: 88.8 nM
EC50, CellTox Green [32]: 6000 nM
EC50, CellTox Green [20]: 46.3 nM
